Results from patent US9187471B2, “Pyrido [4,3-b] indole and pyrido [3,4-b] indole derivatives and methods of use” (Medivation Technologies, Inc., priority 2010, dated 2015).

How the values were obtained:
[1] = biological target: T1, human recombinant serotonin (5-Hydroxytryptamine) 5-HT2A receptor (Homo sapiens, UniProt P28223); test: Serotonin 5-HT2A radioligand binding ([3H]Ketanserin); conditions: compound at 0.1 μM; read-out: Inhibition of ligand binding, Serotonin 5-HT2A (percent inhibition of specific binding)
T1 construct: expressed in transfected cells; host or cells: CHO-K1
T1 sequence (P28223 whole entry): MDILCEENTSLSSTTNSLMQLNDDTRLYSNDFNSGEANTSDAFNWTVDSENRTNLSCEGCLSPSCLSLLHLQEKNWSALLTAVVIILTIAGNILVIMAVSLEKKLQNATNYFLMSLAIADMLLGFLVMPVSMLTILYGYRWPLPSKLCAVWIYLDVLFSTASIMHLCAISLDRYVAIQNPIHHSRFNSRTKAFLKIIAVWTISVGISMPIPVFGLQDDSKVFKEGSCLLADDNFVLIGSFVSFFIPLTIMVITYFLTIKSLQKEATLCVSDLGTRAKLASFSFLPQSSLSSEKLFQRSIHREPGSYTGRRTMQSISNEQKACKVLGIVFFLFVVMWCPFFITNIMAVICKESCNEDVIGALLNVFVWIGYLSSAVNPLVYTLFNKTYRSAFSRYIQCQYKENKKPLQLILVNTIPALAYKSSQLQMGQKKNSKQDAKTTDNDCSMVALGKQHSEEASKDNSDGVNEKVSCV
Description: Compounds of the invention were incubated with 0.5 nM [^3H]Ketanserin for 60 min at 25° C. Non-specific binding was estimated in the presence of 1 μM Mianserin. Receptor proteins were filtered and washed, the filters were then counted to determine [^3H]Ketanserin specifically bound.

[2] = biological target: T2, human recombinant serotonin (5-Hydroxytryptamine) 5-HT5A receptor (Homo sapiens, UniProt P47898); test: Serotonin 5-HT5A radioligand binding ([3H]LSD); conditions: compound at 0.1 μM; read-out: Inhibition of ligand binding, Serotonin 5-HT5A (percent inhibition of specific binding)
T2 construct: expressed in transfected cells; host or cells: CHO-K1
T2 sequence (P47898 whole entry): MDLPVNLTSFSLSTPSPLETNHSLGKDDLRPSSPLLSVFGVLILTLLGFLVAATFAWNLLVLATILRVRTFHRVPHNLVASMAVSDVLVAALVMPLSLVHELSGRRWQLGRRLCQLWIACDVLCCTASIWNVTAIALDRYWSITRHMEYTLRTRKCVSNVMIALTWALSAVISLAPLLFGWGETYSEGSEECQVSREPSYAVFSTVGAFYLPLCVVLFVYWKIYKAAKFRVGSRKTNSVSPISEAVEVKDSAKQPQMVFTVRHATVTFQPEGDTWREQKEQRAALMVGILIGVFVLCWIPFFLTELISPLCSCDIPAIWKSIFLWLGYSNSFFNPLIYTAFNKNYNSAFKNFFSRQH
Description: Compounds of the invention were incubated with 1.7 nM [^3H]Lysergic acid diethylamide (LSD) for 60 min at 37° C. […] Receptor proteins were filtered and washed, the filters were counted to determine [^3H]LSD specifically bound.

[3] = biological target: T3, human recombinant adrenergic α2C receptor (Homo sapiens, UniProt P18825); test: Adrenergic α2C radioligand binding ([3H]MK-912); conditions: read-out: Adrenergic (0.1 μM) a2C, percent inhibition of specific binding; compound at 0.1 μM; 1 nM [3H]MK-912
T3 construct: expressed in transfected cells; host or cells: insect Sf9 cells
T3 sequence (P18825 1-462): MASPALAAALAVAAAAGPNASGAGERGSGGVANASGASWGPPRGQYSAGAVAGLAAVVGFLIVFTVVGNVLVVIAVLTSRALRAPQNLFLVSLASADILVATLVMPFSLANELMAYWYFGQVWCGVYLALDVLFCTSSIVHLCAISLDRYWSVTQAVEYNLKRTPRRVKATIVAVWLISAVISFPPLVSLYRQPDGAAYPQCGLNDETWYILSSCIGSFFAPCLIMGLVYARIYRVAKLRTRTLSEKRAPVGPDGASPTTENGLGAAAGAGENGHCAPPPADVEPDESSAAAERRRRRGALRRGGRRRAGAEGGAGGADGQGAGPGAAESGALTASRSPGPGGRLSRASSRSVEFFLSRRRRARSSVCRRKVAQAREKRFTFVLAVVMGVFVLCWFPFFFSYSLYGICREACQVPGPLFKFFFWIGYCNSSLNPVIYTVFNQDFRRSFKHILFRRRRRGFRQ
Method in brief: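 Membranes from Sf9 cells expressing the human receptor, in 50 mM Tris-HCl pH 7.4 with 12.5 mM MgCl2 and 2 mM EDTA, incubated with compound and 1 nM [3H]MK-912 for 60 min at 25 °C. Non-specific binding defined with 10 μM WB-4101. Filter-bound radioactivity counted; percent inhibition of specific binding reported.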

[4] = biological target: T4, rat adrenergic α1A receptor (Rattus norvegicus, UniProt P43140); test: Adrenergic α1A radioligand binding ([3H]Prazosin); conditions: read-out: Adrenergic (0.1 μM) a1A, percent inhibition of specific binding; compound at 0.1 μM; 0.25 nM [3H]Prazosin
T4 construct: rat adrenergic α1A receptor obtained from Wistar Rat submaxillary glands; from tissue; host or cells: Wistar rat submaxillary glands
T4 sequence (P43140 1-466): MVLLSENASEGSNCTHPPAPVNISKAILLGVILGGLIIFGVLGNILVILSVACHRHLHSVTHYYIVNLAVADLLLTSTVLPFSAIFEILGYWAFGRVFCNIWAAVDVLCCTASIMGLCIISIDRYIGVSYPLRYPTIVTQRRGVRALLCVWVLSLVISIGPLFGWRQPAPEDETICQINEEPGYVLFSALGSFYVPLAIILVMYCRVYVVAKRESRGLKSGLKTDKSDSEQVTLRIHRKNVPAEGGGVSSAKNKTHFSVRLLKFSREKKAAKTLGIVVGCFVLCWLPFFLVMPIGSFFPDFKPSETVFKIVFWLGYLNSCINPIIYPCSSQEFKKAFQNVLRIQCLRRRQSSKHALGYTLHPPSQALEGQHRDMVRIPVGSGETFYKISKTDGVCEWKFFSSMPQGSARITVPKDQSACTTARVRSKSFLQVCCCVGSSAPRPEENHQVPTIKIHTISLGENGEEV
Method in brief: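 Wistar rat submaxillary gland receptor in 50 mM Tris-HCl pH 7.4 with 0.5 mM EDTA, incubated with compound and 0.25 nM [3H]Prazosin for 60 min at 25 °C.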

[5] = biological target: T5, human recombinant histamine H1 receptor (Homo sapiens, UniProt P35367); test: Histamine H1 radioligand binding ([3H]Pyrilamine); conditions: read-out: Histamine H1 Binding (1 μM), percent inhibition of specific binding; compound at 1 μM; 1.2 nM [3H]Pyrilamine
T5 construct: expressed in transfected cells; host or cells: CHO-K1
T5 sequence (P35367 whole entry): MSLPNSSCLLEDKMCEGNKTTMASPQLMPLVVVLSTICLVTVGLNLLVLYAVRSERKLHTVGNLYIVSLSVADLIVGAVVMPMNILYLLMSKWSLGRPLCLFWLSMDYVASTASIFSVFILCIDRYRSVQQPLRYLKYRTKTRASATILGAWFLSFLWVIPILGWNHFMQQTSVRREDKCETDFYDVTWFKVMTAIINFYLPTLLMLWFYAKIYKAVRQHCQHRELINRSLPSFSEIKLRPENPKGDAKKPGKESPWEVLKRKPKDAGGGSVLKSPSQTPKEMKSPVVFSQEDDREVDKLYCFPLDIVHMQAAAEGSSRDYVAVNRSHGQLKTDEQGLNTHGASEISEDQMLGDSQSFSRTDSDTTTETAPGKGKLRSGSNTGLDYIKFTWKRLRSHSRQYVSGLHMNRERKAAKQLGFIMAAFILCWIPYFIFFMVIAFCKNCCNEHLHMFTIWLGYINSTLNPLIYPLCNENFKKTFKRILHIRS
Method in brief: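 Results expressed as percent inhibition of specific [3H]pyrilamine binding, counted on filters after washing. Receptor source: CHO-K1 cells expressing recombinant human H1, in modified Tris-HCl buffer (50 mM, pH 7.4; 2 mM MgCl2, 100 mM NaCl, 250 mM sucrose). 1 μM pyrilamine defined non-specific binding.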

[6] = biological target: T6, human recombinant serotonin (5-Hydroxytryptamine) 5-HT6 receptor (Homo sapiens, UniProt P50406); test: Serotonin 5-HT6 radioligand binding ([3H]LSD); conditions: compound at 0.1 μM; read-out: Inhibition of ligand binding, Serotonin 5-HT6 (percent inhibition of specific binding)
T6 construct: expressed in transfected cells; host or cells: HeLa
T6 sequence (P50406 whole entry): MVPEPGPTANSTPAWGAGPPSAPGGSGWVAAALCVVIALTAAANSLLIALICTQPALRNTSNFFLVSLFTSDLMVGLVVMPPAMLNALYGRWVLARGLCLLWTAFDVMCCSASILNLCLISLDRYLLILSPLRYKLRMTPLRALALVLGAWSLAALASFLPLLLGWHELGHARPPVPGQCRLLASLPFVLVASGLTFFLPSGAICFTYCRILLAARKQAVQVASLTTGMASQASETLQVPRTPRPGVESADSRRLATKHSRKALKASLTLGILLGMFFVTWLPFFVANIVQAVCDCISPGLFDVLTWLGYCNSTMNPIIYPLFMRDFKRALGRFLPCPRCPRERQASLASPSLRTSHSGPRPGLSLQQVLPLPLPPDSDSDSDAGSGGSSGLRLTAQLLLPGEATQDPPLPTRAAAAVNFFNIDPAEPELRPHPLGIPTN
Text: Receptor proteins were filtered and washed, the filters were then counted to determine [3H]LSD specifically bound.

Structure (SMILES)	inhibition at 0.1 µM [1]	inhibition at 0.1 µM [2]	inhibition at 0.1 µM [3]	inhibition at 0.1 µM [4]	inhibition at 1 µM [5]	inhibition at 0.1 µM [6]
Cc1ccc2c(c1)c1c(n2-c2ccccc2-c2cccc3[nH]ncc23)CCN(C)C1 [Compound No. 105, 5-(2-(1H-indazol-4-yl)phenyl)-2,8-dimethyl-2,3,4,5-tetrahydro-1H-pyrido[4,3-b]indole]	94%	56%	45%	55%	34%	40%
Cc1ccc2c(c1)c1c(n2-c2cnc3ccccc3c2)CCN(C)C1 [Compound No. 88, 2,8-dimethyl-5-quinolin-3-yl-2,3,4,5-tetrahydro-1H-pyrido[4,3-b]indole]	93%	22%	4%	20%	18%	4%
Cc1ccc2c(c1)c1c(n2-c2ccccc2-c2cncc3ccccc23)CCN(C)C1 [Compound No. 87, 5-(2-(isoquinolin-4-yl)phenyl)-2,8-dimethyl-2,3,4,5-tetrahydro-1H-pyrido[4,3-b]indole]	70%	24%	-6%	8%	47%	13%
Cc1ccc2c(c1)c1c(n2-c2ccccc2-c2sccc2C)CCN(C)C1 [Compound No. 102, 2,8-dimethyl-5-(2-(3-methylthiophen-2-yl)phenyl)-2,3,4,5-tetrahydro-1H-pyrido[4,3-b]indole]	92%	10%	43%	28%	57%	42%
Cc1ccc2c(c1)c1c(n2-c2ccccc2-c2cccn2C)CCN(C)C1 [Compound No. 100, 2,8-dimethyl-5-(2-(1-methyl-1H-pyrrol-2-yl)phenyl)-2,3,4,5-tetrahydro-1H-pyrido[4,3-b]indole]	74%	11%	66%	46%	36%	26%
Cc1ccc2c(c1)c1c(n2-c2ccccc2-c2cn[nH]c2)CCN(C)C1 [Compound No. 104, 5-(2-(1H-pyrazol-4-yl)phenyl)-2,8-dimethyl-2,3,4,5-tetrahydro-1H-pyrido[4,3-b]indole]	57%	20%	1%	4%	24%	10%
Cc1ccc2c(c1)c1c(n2-c2ccccc2-c2cc3ccccc3s2)CCN(C)C1 [Compound No. 103, 5-(2-(benzo[b]thiophen-2-yl)phenyl)-2,8-dimethyl-2,3,4,5-tetrahydro-1H-pyrido[4,3-b]indole]	24%	42%	69%	44%	10%	20%
Cc1ccc2c(c1)c1c(n2-c2ccccc2-c2cnn(C)c2)CCN(C)C1 [Compound No. 86, 2,8-dimethyl-5-(2-(1-methyl-1H-pyrazol-4-yl)phenyl)-2,3,4,5-tetrahydro-1H-pyrido[4,3-b]indole]	94%	37%	0%	17%	47%	11%
